Source: patent US8519154B2, “Method for treatment of bronchial asthma” (Council of Scientific & Industrial Research, priority 2011, dated 2013)

Key:
Lipophilicity = assay type: physicochemical
Solubility in water = assay type: physicochemical
mice = experiment: Electric shock induced convulsions; assay type: in vivo, Swiss mice
Experimental: Convulsion were induced by a single electroshock (50 Hz in frequency, 0.5 ms pulse width, 50 mA current for 0.3 s) applied through bi-polar electrodes attached to the ear pinna on both side using a pulse generator (Ugo Basile, Italy). The convulsive activity (determined by loss of tonic extensor seizure) was recorded in control (untreated) and Compound I were treated (before electro-shock application) animals [Achliya, G S, Wadodkar, S G, Darle, A K., Evaluation of CNS activity of Bramhi Ghrita. Indian J. Pharmacol. 37 (2005) 33-36].
Anti-convulsant activity was measured by electric shock induced seizure. Five Swiss mice were used for one dose of drug. Convulsion were induced by a single electroshock (50 Hz in frequency, 0.5 ms pulse width, 50 mA current for 0.3 s) applied through bi-polar electrodes attached to the ear pinna on both side by a pulse generator (Ugo Basile, Italy) Test drug were administered orally 60 min before electroshock application, and convulsive activity was determined by loss of tonic extensor seizure.

CYP 3A4 (liver) = CYP 3A4 (liver) (Homo sapiens, UniProt P08684); experiment: Metabolism by CYP 3A4; assay type: in vitro ADME
[1] = 28 d sub-acute oral toxicity (OECD TG 407); assay type: in vivo, mice; settings: both sexes, Balb/c, mouse, in vivo; mice, 28 d oral
Experimental: (§1) The study was performed according to the guidelines laid in OECD TG 407. Young healthy adult mice (Balb/c) weighing between 28 to 35 g were employed and randomly assigned to the control and treatment groups and kept in their cages for at least five days prior to the start of the treatment to allow for acclimatisation to the laboratory conditions. 10 animals (five female and five male) were used at each dose level. Local standards of laboratory animal care were maintained. The temperature in the experimental animal room was maintained at 24° C.±3° C. and the relative humidity between 40 to 60% with 12 hours artificial light and 12 hours dark photoperiod. For feeding, conventional sterile pellet diets (Nay Chetan) with an unlimited supply of RO drinking water was given. A sample of the diet was retained until finalisation of the report. Animals were housed in small groups of 5 of the same sex.
(§2) Blunt ended canula was used for gavaging. During the period of administration of Compound I, the animals are observed closely (30 minutes cage side observation), each day for signs of toxicity till the day of sacrifice. Weights of animals and measurements of food consumption were made once in a week.
(§3) Experimental animals were sacrificed on day 29. Before sacrifice, blood was drawn from the retro-orbital sinus of mice with the help of heparinised capillary tubes and split in to two parts. Part taken in tubes containing EDTA was used for hematological studies with the help of Automatic Hematology Analyzer (Medonic). The other part was allowed to clot for 2 h and serum separated by centrifugation at 3000 rpm for 5 min, and subsequently used for clinical biochemistry and immunoglobuling profiling. Post sacrifice, the individual organs were dissected out, weighed and percentage relative organ weights determined. Spleen, lymphnode and bone marrow cell viability were judged by trypan blue dye exclusion test.
(§4) The blood left after the hematological studies were allowed to clot for 2 h and serum separated by centrifugation at 3000 rpm for 5 min and subsequently used for clinical biochemistry. Details of the clinical biochemistry are given below in table II.
(§5) Serum concentrations of total IgG and IgM were measured by ELISA and Cell mediated immunity was measured in terms of % increase in paw volume in mice sensitized with SRBC.
(§6) Histopathology was carried out on vital organs by fixing organs in 10% buffered formalin saline for 72 h followed by washing, dehydrating and embedding on paraffin wax. Paraffin blocks were sectioned (4-5μ tick), deparaffinised and stained with hematoxylin and eosin for viewing and photography under microscope (Nikion, Japan). Histopathology was performed in the control and high dose groups unless mentioned otherwise.

mice (Balb/c) = experiment: 28 d sub-acute oral toxicity (OECD TG 407); assay type: in vivo; settings: for Protein: normal 6-9; for SGOT: normal 19@25° C.; for Glucose: normal 55-130; for Bilirubin: normal <1.1; for SGPT: normal <22 @25° C.; for CMI DTH (% increase in paw vol): SRBC sensitized; for Total Ig IgG / Total Ig IgM: serum, ELISA; for % viability BM / % viability LN / % viability Spleen: trypan blue
Experimental: as §1, §2, §3, §4, §5, §6

CYP 3A4 (liver), sequence (P08684 whole entry, species assumed): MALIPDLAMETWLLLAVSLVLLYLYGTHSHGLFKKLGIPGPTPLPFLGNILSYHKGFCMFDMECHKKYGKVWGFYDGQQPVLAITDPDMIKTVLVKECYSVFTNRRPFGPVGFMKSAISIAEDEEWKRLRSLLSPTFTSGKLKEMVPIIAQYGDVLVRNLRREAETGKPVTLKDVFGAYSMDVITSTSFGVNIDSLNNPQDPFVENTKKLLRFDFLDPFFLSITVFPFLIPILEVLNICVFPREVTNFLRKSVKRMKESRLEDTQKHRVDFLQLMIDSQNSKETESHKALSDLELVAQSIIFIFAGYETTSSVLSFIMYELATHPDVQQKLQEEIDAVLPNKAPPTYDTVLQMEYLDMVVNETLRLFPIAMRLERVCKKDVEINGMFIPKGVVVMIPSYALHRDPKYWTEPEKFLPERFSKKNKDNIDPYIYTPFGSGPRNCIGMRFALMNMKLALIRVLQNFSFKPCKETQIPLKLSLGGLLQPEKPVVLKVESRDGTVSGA

## COc1cc(C=O)cc2c1[nH]c1ccccc12 [Compound I, 1-methoxy-3-formyl-9H carbazole]
Lipophilicity
  lipophilicity: highly lipophilic
Solubility in water
  solubility in water: insoluble in water
mice; 12.5 mg/kg p.o.
  Convulsions Clonic: 5/5
  Convulsions Tonic: 5/5
  Mortality: 1/5
mice; 50 mg/kg p.o.
  Convulsions Clonic: 5/5
  Convulsions Tonic: 5/5
  Mortality: 0/5
mice; 100 mg/kg p.o.
  Convulsions Clonic: 5/5
  Convulsions Tonic: 5/5
  Mortality: 0/5
mice; 12.5, 25 and 50 mg/kg orally
  anti-convulsant activity: no anti-convulsant activity
CYP 3A4 (liver)
  metabolism: metabolized by CYP 3A4 (liver)
[1]
  NOAEL at 28 days: 93 mg/kg
Mice (Balb/c); 42 mg/kg, 28 d oral
  HGB: 9.47 ± 1.7 g/dL
  PLT: 439 ± 76 × 10^3/mm^3
  RBC: 7.29 ± 1.46 ×10^6/mm^3
  WBC: 6.7 ± 1.2 10^3/mm^3
  Protein: 7.93 ± 1.33 g/dL
  SGOT: 15.51 ± 3.6 U/L
  Glucose: 127 ± 17 mg/dL
  Bilirubin: 0.74 ± 0.08 mg/dL
  SGPT: 18.54 ± 2.1 U/L
Mice (Balb/c); 47 mg/kg, 28 d oral
  CMI DTH (% increase in paw vol): 17.23 ± 4.4 % increase in paw vol
  Total Ig IgG: 3.1 ± 0.85 mg/mL
  Total Ig IgM: 1.48 ± 0.12
  % viability BM: 97.3 ± 3.5%
  % viability LN: 95.9 ± 5.4%
  % viability Spleen: 96.8 ± 4.8%
Mice (Balb/c); 93 mg/kg
  glucose vs normal range: marginally higher than the normal range
Mice (Balb/c); 93 mg/kg body weight
  symptoms of toxicity: no symptoms of toxicity
Mice (Balb/c); 93 mg/kg, 28 d oral
  HGB: 12.8 ± 2.4 g/dL
  PLT: 426 ± 43 × 10^3/mm^3
  RBC: 8.52 ± 1.4 ×10^6/mm^3
  WBC: 5.9 ± 1.4 10^3/mm^3
  CMI DTH (% increase in paw vol): 19.2 ± 6.3 % increase in paw vol
  Protein: 8.73 ± 2.8 g/dL
  SGOT: 12.9 ± 1.92 U/L
  Glucose: 133 ± 13 mg/dL
  Bilirubin: 0.17 ± 0.068 mg/dL
  SGPT: 10.2 ± 2.9 U/L
  Total Ig IgG: 3.6 ± 1.26 mg/mL
  Total Ig IgM: 1.12 ± 0.33
  % viability BM: 96.8 ± 4.6%
  % viability LN: 96.5 ± 4.6%
  % viability Spleen: 95.4 ± 5.3%
Mice (Balb/c); 187 mg/kg
  SGOT vs normal range: marginally higher than the normal range
  glucose level vs normal range: much higher than the normal range
  kidney histopathology: sign of necrosis in the corticular region
  signs of toxicity: Few signs of toxicity
Mice (Balb/c); 187 mg/kg, 28 d oral
  HGB: 13.2 ± 1.8 g/dL
  PLT: 472 ± 65 × 10^3/mm^3
  RBC: 8.6 ± 0.67 ×10^6/mm^3
  WBC: 5.9 ± 4.1 10^3/mm^3
  CMI DTH (% increase in paw vol): 17.4 ± 6.6 % increase in paw vol
  Protein: 7.27 ± 0.85 g/dL
  SGOT: 20.2 ± 0.85 U/L
  Glucose: 183 ± 20 mg/dL
  Bilirubin: 0.91 ± 0.057 mg/dL
  SGPT: 15.83 ± 2.32 U/L
  Total Ig IgG: 2.9 ± 0.56 mg/mL
  Total Ig IgM: 1.04 ± 0.34
  % viability BM: 94.67 ± 4.9%
  % viability LN: 97.4 ± 3.9%
  % viability Spleen: 98.4 ± 4.4%
Mice (Balb/c); SRBC sensitized mice
  DTH response vs sham treated control: insignificant changes
Mice (Balb/c); mice, 28 d oral
  acute oral LOAEL: 187 mg/kg
Mice (Balb/c); trypan blue dye exclusion test
  viability of bone marrow cells, splenocyte and lymph node lymphocyte vs sham control: No significant changes
